Source: patent US12385900B2, “Method for evaluating cytotoxicity of gas” (DAIKIN INDUSTRIES, LTD., priority 2018, dated 2025)

How the values were obtained:
heart = settings: reported / known; cited from earlier work
[1] = tested on: Human iPS cell-derived cardiomyocytes (iCell cardiomyocytes^2, CDI); test: Cytotoxicity evaluation test: number of beats of cardiomyocytes during gas flow onto the cell culture medium; format: cell-based
Procedure: Human iPS cell-derived cardiomyocytes (iCell cardiomyocytes^2, CDI) were seeded into a 96-well half-area plate at a density of 40,000 cells/well, followed by culture in an incubator for 7 to 10 days. Subsequently, a Ca indicator (EarlyTox Cardiotoxicity Kit, Molecular Devices) was added at 30 μL/well to the cardiomyocytes. Subsequently, chlorodifluoromethane (Example) or difluoromethane (Reference Example) was allowed to flow onto the surface of the cell culture medium in a closed vessel at a flow rate of 50 mL/min. During the flow, the cell culture medium was maintained at a pH of 7.4, a temperature of 37° C., and an air pressure in the incubator of 101.3 kPa. The number of beats of cardiomyocytes from the start of the flow to 10 minutes after the start of the flow was measured by a fluorescence measurement with a confocal quantitative image cytometer (CQ1, Yokogawa Electric Corporation).

Structure (SMILES)	effects on the heart (heart)	change in the number of beats of cardiomyocytes [1]	Average number of beats (beats/30 sec) ([1]; human, 0 min, pH 7.4)	Average number of beats (beats/30 sec) ([1]; human, 10 min, pH 7.4)	increase in the number of beats ([1]; 10 minutes after the start of the flow) [%]	Average number of beats (beats/30 sec) ([1]; exposure time 0 min (start of flow), gas flow 50 mL/min onto medium surface, pH 7.4, 37° C., 101.3 kPa)	Average number of beats (beats/30 sec) ([1]; exposure time 10 min, gas flow 50 mL/min onto medium surface, pH 7.4, 37° C., 101.3 kPa)
FCF [difluoromethane]	no significant effects on the heart	almost no change	16.1	16.5			
FC(F)Cl [chlorodifluoromethane]	has effects on the heart				74	14.5	25.3
